Measured values: PubChem BioAssay (NCI)
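1) Cells in 96-well plates. 2) Compound, 48 h, 5 concentrations. 3) Linear interpolation between surrounding doses. 4) Unreached endpoint = highest concentration. GI50: concentration for 50% inhibition of growth. At the TGI there is no net growth.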

Experiments:
Assay in all cases: inhibition of tumour cell growth, NCI panel, 48 h
K-562 leukemia = system: K-562 leukemia
HCC-2998 colon = system: HCC-2998 colon
SK-MEL-2 melanoma = system: SK-MEL-2 melanoma
LOX IMVI melanoma = system: LOX IMVI melanoma
OVCAR-8 ovarian = system: OVCAR-8 ovarian
UACC-257 melanoma = system: UACC-257 melanoma
HS 578T breast = system: HS 578T breast
SW-620 colon = system: SW-620 colon
MDA-MB-231 breast = system: MDA-MB-231 breast
SK-OV-3 ovarian = system: SK-OV-3 ovarian
TK-10 renal = system: TK-10 renal
CCRF-CEM leukemia = system: CCRF-CEM leukemia
OVCAR-3 ovarian = system: OVCAR-3 ovarian
U251 CNS = system: U251 CNS
SF-539 CNS = system: SF-539 CNS
MOLT-4 leukemia = system: MOLT-4 leukemia
NCI-H460 lung = system: NCI-H460 lung
HT29 colon = system: HT29 colon
HCT-116 colon = system: HCT-116 colon
NCI-H23 lung = system: NCI-H23 lung
SK-MEL-5 melanoma = system: SK-MEL-5 melanoma
KM12 colon = system: KM12 colon
SK-MEL-28 melanoma = system: SK-MEL-28 melanoma
A549 NSCLC = system: A549 NSCLC
PC-3 prostate = system: PC-3 prostate
SF-295 CNS = system: SF-295 CNS
RXF 393 renal = system: RXF 393 renal
ACHN renal = system: ACHN renal
SN12C renal = system: SN12C renal
SNB-75 CNS = system: SNB-75 CNS
NCI-H522 lung = system: NCI-H522 lung
786-0 renal = system: 786-0 renal
BT-549 breast = system: BT-549 breast
M14 melanoma = system: M14 melanoma
UO-31 renal = system: UO-31 renal
SR leukemia = system: SR leukemia
NCI/ADR-RES ovarian = system: NCI/ADR-RES ovarian
MCF7 breast = system: MCF7 breast
SNB-19 CNS = system: SNB-19 CNS
HCT-15 colon = system: HCT-15 colon
HOP-62 NSCLC = system: HOP-62 NSCLC
COLO 205 colon = system: COLO 205 colon
MDA-MB-435 = system: MDA-MB-435
NCI-H226 lung = system: NCI-H226 lung
UACC-62 melanoma = system: UACC-62 melanoma
SF-268 CNS = system: SF-268 CNS
OVCAR-4 ovarian = system: OVCAR-4 ovarian
OVCAR-5 ovarian = system: OVCAR-5 ovarian
CAKI-1 renal = system: CAKI-1 renal
EKVX NSCLC = system: EKVX NSCLC
IGROV1 ovarian = system: IGROV1 ovarian
RPMI-8226 leukemia = system: RPMI-8226 leukemia
MALME-3M melanoma = system: MALME-3M melanoma
HL-60(TB) leukemia = system: HL-60(TB) leukemia
A498 renal = system: A498 renal
DU-145 prostate = system: DU-145 prostate
HOP-92 NSCLC = system: HOP-92 NSCLC

CC1(C)N([O-])[N+](=O)C1(C)Br (centres undefined)
TGI (K-562 leukemia): > 100 µM
TGI (HCC-2998 colon): > 100 µM
TGI (SK-MEL-2 melanoma): > 100 µM
TGI (LOX IMVI melanoma): > 100 µM
TGI (OVCAR-8 ovarian): > 100 µM
TGI (UACC-257 melanoma): > 100 µM
TGI (HS 578T breast): > 100 µM
TGI (SW-620 colon): > 100 µM
TGI (MDA-MB-231 breast): > 100 µM
TGI (SK-OV-3 ovarian): > 100 µM
TGI (TK-10 renal): > 100 µM
TGI (CCRF-CEM leukemia): > 100 µM
TGI (OVCAR-3 ovarian): > 100 µM
TGI (U251 CNS): > 100 µM
TGI (SF-539 CNS): > 100 µM
TGI (MOLT-4 leukemia): > 100 µM
TGI (NCI-H460 lung): > 100 µM
TGI (HT29 colon): > 100 µM
TGI (HCT-116 colon): > 100 µM
TGI (NCI-H23 lung): > 100 µM
TGI (SK-MEL-5 melanoma): > 100 µM
TGI (KM12 colon): > 100 µM
TGI (SK-MEL-28 melanoma): > 100 µM
TGI (A549 NSCLC): > 100 µM
TGI (PC-3 prostate): > 100 µM
TGI (SF-295 CNS): > 100 µM
TGI (RXF 393 renal): > 100 µM
TGI (ACHN renal): > 100 µM
TGI (SN12C renal): > 100 µM
TGI (SNB-75 CNS): > 100 µM
TGI (NCI-H522 lung): > 100 µM
TGI (786-0 renal): > 100 µM
TGI (BT-549 breast): > 100 µM
TGI (M14 melanoma): > 100 µM
TGI (UO-31 renal): > 100 µM
TGI (SR leukemia): > 100 µM
TGI (NCI/ADR-RES ovarian): > 100 µM
TGI (MCF7 breast): > 100 µM
TGI (SNB-19 CNS): > 100 µM
TGI (HCT-15 colon): > 100 µM
TGI (HOP-62 NSCLC): > 100 µM
TGI (COLO 205 colon): > 100 µM
TGI (MDA-MB-435): > 100 µM
TGI (NCI-H226 lung): > 100 µM
TGI (UACC-62 melanoma): > 100 µM
TGI (SF-268 CNS): > 100 µM
TGI (OVCAR-4 ovarian): > 100 µM
TGI (OVCAR-5 ovarian): > 100 µM
TGI (CAKI-1 renal): > 100 µM
TGI (EKVX NSCLC): > 100 µM
TGI (IGROV1 ovarian): > 100 µM

CCN(CC)c1ccc2cc(C(=O)Nc3ccccc3OC)c(=N)oc2c1
TGI (RPMI-8226 leukemia): 88.7 µM
TGI (K-562 leukemia): > 100 µM
TGI (HCC-2998 colon): > 100 µM
TGI (SK-MEL-2 melanoma): > 100 µM
TGI (MALME-3M melanoma): > 100 µM
TGI (LOX IMVI melanoma): 58.2 µM
TGI (OVCAR-8 ovarian): 23 µM
TGI (UACC-257 melanoma): > 100 µM
TGI (HS 578T breast): 98.4 µM
TGI (SW-620 colon): > 100 µM
TGI (SK-OV-3 ovarian): > 100 µM
TGI (CCRF-CEM leukemia): 20.8 µM
TGI (OVCAR-3 ovarian): > 100 µM
TGI (U251 CNS): > 100 µM
TGI (SF-539 CNS): > 100 µM
TGI (MOLT-4 leukemia): 17.2 µM
TGI (NCI-H460 lung): > 100 µM
TGI (HT29 colon): > 100 µM
TGI (HCT-116 colon): > 100 µM
TGI (NCI-H23 lung): 89.8 µM
TGI (HL-60(TB) leukemia): 31.6 µM
TGI (SK-MEL-5 melanoma): > 100 µM
TGI (KM12 colon): > 100 µM
TGI (SK-MEL-28 melanoma): > 100 µM
TGI (A549 NSCLC): > 100 µM
TGI (PC-3 prostate): 59.6 µM
TGI (SF-295 CNS): > 100 µM
TGI (ACHN renal): > 100 µM
TGI (NCI-H522 lung): 65.6 µM
TGI (786-0 renal): > 100 µM
TGI (BT-549 breast): 74.5 µM
TGI (M14 melanoma): > 100 µM
TGI (UO-31 renal): 1.58 µM
TGI (SR leukemia): > 100 µM
TGI (NCI/ADR-RES ovarian): 90.8 µM
TGI (MCF7 breast): > 100 µM
TGI (SNB-19 CNS): > 100 µM
TGI (A498 renal): > 100 µM
TGI (HCT-15 colon): 88.3 µM
TGI (HOP-62 NSCLC): > 100 µM
TGI (COLO 205 colon): > 100 µM
TGI (MDA-MB-435): > 100 µM
TGI (UACC-62 melanoma): > 100 µM
TGI (SF-268 CNS): > 100 µM
TGI (OVCAR-4 ovarian): > 100 µM
TGI (OVCAR-5 ovarian): > 100 µM
TGI (CAKI-1 renal): 72.1 µM
TGI (EKVX NSCLC): > 100 µM
TGI (DU-145 prostate): > 100 µM
TGI (IGROV1 ovarian): 35.3 µM

O[C@H]1C=C2[C@H](C[C@@H]1O)CN1C[C@H]2c2cc3c(cc21)OCO3
GI50 (RPMI-8226 leukemia): 35.8 µM
TGI (RPMI-8226 leukemia): > 100 µM
GI50 (K-562 leukemia): 49.9 µM
TGI (K-562 leukemia): > 100 µM
GI50 (HCC-2998 colon): 20.4 µM
TGI (HCC-2998 colon): 56 µM
GI50 (SK-MEL-2 melanoma): 99.5 µM
TGI (SK-MEL-2 melanoma): > 100 µM
GI50 (LOX IMVI melanoma): 18.7 µM
TGI (LOX IMVI melanoma): 55.5 µM
GI50 (OVCAR-8 ovarian): 30.2 µM
TGI (OVCAR-8 ovarian): > 100 µM
GI50 (UACC-257 melanoma): 41.6 µM
TGI (UACC-257 melanoma): > 100 µM
GI50 (HS 578T breast): 79.9 µM
TGI (HS 578T breast): > 100 µM
GI50 (SW-620 colon): 49.1 µM
TGI (SW-620 colon): > 100 µM
GI50 (MDA-MB-231 breast): 33 µM
TGI (MDA-MB-231 breast): > 100 µM
GI50 (SK-OV-3 ovarian): 6.15 µM
TGI (SK-OV-3 ovarian): 51.1 µM
GI50 (TK-10 renal): 20.3 µM
TGI (TK-10 renal): 76.6 µM
GI50 (CCRF-CEM leukemia): > 100 µM
TGI (CCRF-CEM leukemia): > 100 µM
GI50 (OVCAR-3 ovarian): 42.1 µM
TGI (OVCAR-3 ovarian): 84.6 µM
GI50 (U251 CNS): 27.6 µM
TGI (U251 CNS): 94.1 µM
GI50 (SF-539 CNS): 22.4 µM
TGI (SF-539 CNS): 80.2 µM
GI50 (MOLT-4 leukemia): > 100 µM
TGI (MOLT-4 leukemia): > 100 µM
GI50 (NCI-H460 lung): 21.7 µM
TGI (NCI-H460 lung): > 100 µM
GI50 (HCT-116 colon): 21.6 µM
TGI (HCT-116 colon): > 100 µM
GI50 (NCI-H23 lung): 29.3 µM
TGI (NCI-H23 lung): 96.6 µM
GI50 (HL-60(TB) leukemia): 23.3 µM
TGI (HL-60(TB) leukemia): 87.5 µM
GI50 (SK-MEL-5 melanoma): 29.4 µM
TGI (SK-MEL-5 melanoma): > 100 µM
GI50 (KM12 colon): 23.4 µM
TGI (KM12 colon): > 100 µM
GI50 (SK-MEL-28 melanoma): 19 µM
TGI (SK-MEL-28 melanoma): 87.7 µM
GI50 (A549 NSCLC): 28.2 µM
TGI (A549 NSCLC): 88.8 µM
GI50 (PC-3 prostate): 49.1 µM
TGI (PC-3 prostate): > 100 µM
GI50 (SF-295 CNS): 15.1 µM
TGI (SF-295 CNS): 67.2 µM
GI50 (RXF 393 renal): 50.3 µM
TGI (RXF 393 renal): > 100 µM
GI50 (ACHN renal): 8.92 µM
TGI (ACHN renal): 36.3 µM
GI50 (HOP-92 NSCLC): 83.1 µM
TGI (HOP-92 NSCLC): > 100 µM
GI50 (SN12C renal): 18 µM
TGI (SN12C renal): 58.9 µM
GI50 (NCI-H522 lung): 94.5 µM
TGI (NCI-H522 lung): > 100 µM
GI50 (786-0 renal): 25.5 µM
TGI (786-0 renal): > 100 µM
GI50 (BT-549 breast): 37.8 µM
TGI (BT-549 breast): > 100 µM
GI50 (M14 melanoma): 24.9 µM
TGI (M14 melanoma): > 100 µM
GI50 (UO-31 renal): 61.2 µM
TGI (UO-31 renal): > 100 µM
GI50 (SR leukemia): 41 µM
TGI (SR leukemia): > 100 µM
GI50 (NCI/ADR-RES ovarian): 70.5 µM
TGI (NCI/ADR-RES ovarian): > 100 µM
GI50 (MCF7 breast): 28.8 µM
TGI (MCF7 breast): > 100 µM
GI50 (SNB-19 CNS): 24.9 µM
TGI (SNB-19 CNS): > 100 µM
GI50 (A498 renal): 81.8 µM
TGI (A498 renal): > 100 µM
GI50 (HCT-15 colon): 30.1 µM
TGI (HCT-15 colon): > 100 µM
GI50 (HOP-62 NSCLC): 30.5 µM
TGI (HOP-62 NSCLC): > 100 µM
GI50 (COLO 205 colon): 21.4 µM
TGI (COLO 205 colon): > 100 µM
GI50 (MDA-MB-435): 20.1 µM
TGI (MDA-MB-435): 90.4 µM
GI50 (NCI-H226 lung): 22.1 µM
TGI (NCI-H226 lung): 70.3 µM
GI50 (UACC-62 melanoma): 22.1 µM
TGI (UACC-62 melanoma): 96.2 µM
GI50 (SF-268 CNS): 25.4 µM
TGI (SF-268 CNS): 86.5 µM
GI50 (OVCAR-4 ovarian): 32.7 µM
TGI (OVCAR-4 ovarian): 73 µM
GI50 (OVCAR-5 ovarian): 30.2 µM
TGI (OVCAR-5 ovarian): > 100 µM
GI50 (CAKI-1 renal): 23.5 µM
TGI (CAKI-1 renal): 61.1 µM
GI50 (EKVX NSCLC): 39.6 µM
TGI (EKVX NSCLC): > 100 µM
GI50 (DU-145 prostate): 19 µM
TGI (DU-145 prostate): > 100 µM
GI50 (IGROV1 ovarian): 62 µM
TGI (IGROV1 ovarian): > 100 µM
